# Results published in US20240246978A1, “PHENYLDIHYDROPYRIMIDINE COMPOUND AND USE THEREOF” (HEPAGENE THERAPEUTICS (HK) LIMITED, priority 2021, published 2024).
# Tested on: Hepatitis B virus (HBV)
# Test: In vitro anti-HBV activity by q-PCR assay of HBV DNA in HepG2.2.15 cell supernatant
# Type: cell-based
# Details: HepG2.2.15 cells; inhibition of HBV DNA copies in supernatant by qPCR; compound renewed after 3 days, 3 more days; 0.5% DMSO; read-out: EC50
# Protocol: Compound preparation and cell culture: The test compounds were prepared as 20 mM storage solution using the appropriate volume of dimethyl sulfoxide (DMSO) (Sigma-D2650) according to the relative molecular weight and mass.
# The growth of HepG2.2.15 cells (Wuhan Institute of Virology, Chinese Academy of Sciences) in the culture flasks were observed under a microscope, the cells were digested with trypsin (Invitrogen-25300062), and resuspended with cell culture medium (DMEM/F12, Invitrogen-11330032; containing 2% fetal bovine serum FBS, HyClone-SV30087.03, 100 U/Ml penicillin, Hyclone-SV30010, 100 μg/mL streptomycin, Hyclone-SV30010, 1% non-essential amino acids, Invitrogen-11140-050, 2 mM L-glutamine, Gibco-35050-061); the cells were counted using a Vi-Cell cell counter and the volume and concentration of cell suspension were adjusted according to the number of cell spreads and the number of cells required per well, and the cell spreading density of the 96-well cell culture plates (Costar-3599) was 60,000 cells/well, 100 μL/well; the cell plates with the cells were placed in a 5% CO2, 37° C. incubator and incubated overnight.
# The experiments were set at a starting concentration of 100 μM for the test compound and 20 nM for the reference compound entecavir (ETV, WuXi AppTec), with a 3-fold gradient dilution and 9 concentration points. A 96-well V-bottom plate was used, the corresponding test compounds and reference compounds ETV were diluted to obtain 200× compound source plate; a sterile 2 mL deep-well plate was added with 297 μL of cell culture medium, 3 μL of the compounds in the 200× compound source plate were added to the corresponding deep-well plate, diluted by 100-fold, and mixed well with a pipette tip blowing to obtain a 2× compound plate, and then the plate was sealed with parafilm and then stored in a nitrogen cabinet to be used for replacement of the compounds. The cell plate laid out the day before was took and added with 100 μL of diluted 2× compound to each of the corresponding cell wells with a final concentration of 0.5% DMSO. Example of compound distribution in the cell plate is shown below*:
# After the cell plates were reintroduced into a 5% CO2, 37° C. cell incubator for 3 days, the medium was removed from the cell culture plates and 100 μL of cell culture solution was replenished to each well. The 200× compound source plate configured was removed from the nitrogen cabinet, a sterile 2 mL deep-well plate was added with 297 μL of cell culture medium, 3 μL of the compounds in the 200× compound source plate was added to the corresponding deep-well plate, diluted by 100-fold, and mixed well with a pipette tip blowing to obtain a 2× compound plate. To the cell wells containing 100 μL of medium, 100 μL of diluted 2× compound was added, with a final concentration of DMSO of 0.5%; the cell plates were reintroduced into 5% CO2 and incubated in a 37° C. cell incubator for 3 days.
# The 96-well cell plate was removed from the incubator, centrifuged at 3,000 rpm for 2 min with centrifuge (Beckman, Allegra-X15R), and the cell supernatant was collected for subsequent HBV DNA extraction. 50 μL of cell culture solution were added to each well in the cell plate, then 50 μL of CellTiter-Glo Detection Reagent (Promega-G7573) were added to each well, and the plate was shaken for 10 min away from light to allow the cells to be lysed; the luminescence value of each well was detected by using an enzyme labeller (BioTek Synergy 2).
# HBV DNA Extraction: HBV DNA was extracted from cell supernatants using the QIAamp 96 DNA Blood Kit (Qiagen-51162) as described in the kit instructions; the volume of cell supernatant was 150 μL and the final DNA elution volume was 180 μL. […]
row,SMILES,EC50 [nM]
1,C#Cc1cc(F)ccc1[C@H]1N=C(c2nccs2)NC(CN2CCN3C(=O)N(CC(C)(C)C(=O)O)C[C@@H]3C2)=C1C(=O)OCC [SZ-023089],< 50
2,C#Cc1cc(F)ccc1[C@H]1N=C(c2nccs2)NC(CN2[C@@H]3CC(CC(=O)O)C[C@H]2C(F)(F)C3)=C1C(=O)OCC (some centres unmarked) [SZ-023091],< 50
3,C#Cc1cc(F)ccc1[C@@H]1N=C(c2nccs2)NC(CN2CCO[C@H](/C=C/C(=O)O)C2)=C1C(=O)OCC [SZ-023093],< 50
4,C#Cc1cc(F)ccc1[C@H]1N=C(c2nccs2)NC(CN2CCO[C@H](CCC(=O)O)C2)=C1C(=O)OCC [SZ-023095],< 50
5,C#Cc1cc(F)ccc1[C@@H]1N=C(c2nccs2)NC(CN2CCOCC2)=C1C(=O)OCC [SZ-023115-P1],> 1000
6,C#Cc1cc(F)ccc1[C@H]1N=C(c2nccs2)NC(CN2CCOCC2)=C1C(=O)OCC [SZ-023115-P2],< 50

# Same assay, conditions: Hepatitis B virus, 72 h; HepG2.2.15 cells; inhibition of HBV DNA copies in supernatant by qPCR; compound renewed after 3 days, 3 more days; 0.5% DMSO; read-out: EC50
row,SMILES,EC50 [nM]
1,C#Cc1cc(F)ccc1C1N=C(c2nccs2)NC(CN2CCN3C(=O)N(CC(C)(C)C(=O)O)C[C@@H]3C2)=C1C(=O)OCC (mixture of isomers) [SZ-023089RAC],< 50
2,C#Cc1cc(F)ccc1C1N=C(c2nccs2)NC(CN2CCO[C@H](/C=C/C(=O)O)C2)=C1C(=O)OCC (mixture of isomers) [SZ-023093RAC],< 50
3,C#Cc1cc(F)ccc1C1N=C(c2nccs2)NC(CN2CCO[C@H](CCC(=O)O)C2)=C1C(=O)OCC (mixture of isomers) [SZ-023095RAC],50 to 100
4,C#Cc1cc(F)ccc1C1N=C(c2nccs2)NC(CN2CCOCC2)=C1C(=O)OCC (racemic) [SZ-023115RAC],< 50
5,CCOC(=O)C1=C(CN2CCOCC2)NC(c2nccs2)=NC1c1ccc(F)cc1C#N (racemic) [SZ-023117RAC],50 to 100
6,C#Cc1c(C2N=C(c3nccs3)NC(CN3CCN4C(=O)N(CC(C)(C)C(=O)O)C[C@@H]4C3)=C2C(=O)OCC)ccc(F)c1F (some centres unmarked) [SZ-023127],< 50
7,C#Cc1cc(F)c(F)cc1[C@@H]1N=C(c2nccs2)NC(CN2CCN3C(=O)N(CC(C)(C)C(=O)O)C[C@@H]3C2)=C1C(=O)OCC [SZ-023129],100 to 1000
8,[2H]C([2H])([2H])C([2H])([2H])OC(=O)C1=C(CN2CCN3C(=O)N(CC(C)(C)C(=O)O)C[C@@H]3C2)NC(c2nccs2)=N[C@H]1c1cccc(F)c1C#C [SZ-023133],< 50
9,[2H]C([2H])([2H])OC(=O)C1=C(CN2CCO[C@H](/C=C/C(=O)O)C2)NC(c2nccs2)=N[C@H]1c1ccc(F)cc1C#C [SZ-023143],< 50
10,C#Cc1cc(F)ccc1[C@@H]1N=C(c2nccs2)NC(CN2CCN3C(=O)N(CC(C)(C)C(=O)O)C[C@@H]3C2)=C1C(=O)OC [SZ-023145],< 50
11,[2H]C([2H])([2H])OC(=O)C1=C(CN2CCN3C(=O)N(CC(C)(C)C(=O)O)C[C@@H]3C2)NC(c2nccs2)=N[C@H]1c1ccc(F)cc1C#C [SZ-023147],< 50
12,[2H]C([2H])([2H])C([2H])([2H])OC(=O)C1=C(CN2CCN3C(=O)N(CC(C)(C)C(=O)O)C[C@@H]3C2)NC(c2nccs2)=N[C@H]1c1ccc(F)cc1C#C [SZ-023149],< 50
13,C#Cc1cc(F)ccc1[C@@H]1N=C(c2nccs2)NC(CN2CCN3C(=O)N(CC(C)(C)C(=O)O)C[C@@H]3C2)=C1C(=O)SC [SZ-023151],100 to 1000
14,C#Cc1cc(F)ccc1[C@@H]1N=C(c2nccs2)NC(CN2CCO[C@H](C3CC3C(=O)O)C2)=C1C(=O)OCC (some centres unmarked) [SZ-023342],50 to 100
15,C#Cc1cc(Cl)ccc1C1N=C(c2nccs2)NC(CN2CCN3C(=O)N(CC(C)(C)C(=O)O)C[C@@H]3C2)=C1C(=O)OCC (some centres unmarked) [SZ-023366],< 50
16,C#Cc1cc(C)ccc1C1N=C(c2nccs2)NC(CN2CCN3C(=O)N(CC(C)(C)C(=O)O)C[C@@H]3C2)=C1C(=O)OCC (some centres unmarked) [SZ-023368],100 to 1000
17,C#Cc1ccccc1C1N=C(c2nccs2)NC(CN2CCN3C(=O)N(CC(C)(C)C(=O)O)C[C@@H]3C2)=C1C(=O)OCC (some centres unmarked) [SZ-023370],50 to 100
18,C#Cc1cc(Cl)ccc1C1N=C(c2nccs2)NC(CN2CCN3C(=O)N(c4ccc(CCC(=O)O)cc4)C[C@@H]3C2)=C1C(=O)OCC (some centres unmarked) [SZ-023380],< 50
19,C#Cc1cc(F)ccc1[C@@H]1N=C(c2nccs2)NC(CN2CCN3C(=O)N(c4ccc(CCC(=O)O)cc4)C[C@@H]3C2)=C1C(=O)OCC [SZ-023384],< 50
20,C#Cc1c(F)cccc1[C@@H]1N=C(c2nccs2)NC(CN2CCN3C(=O)N(c4ccc(CCC(=O)O)cc4)C[C@@H]3C2)=C1C(=O)OCC [SZ-023386],< 50
21,C#Cc1cc(F)ccc1[C@@H]1N=C(c2nccs2)NC(CN2CCN3C(=O)N(c4ccc(C(=O)O)c(F)c4)C[C@@H]3C2)=C1C(=O)OCC [SZ-023388],< 50
22,C#Cc1c(F)cccc1[C@@H]1N=C(c2nccs2)NC(CN2CCN3C(=O)N(c4ccc(C(=O)O)c(F)c4)C[C@@H]3C2)=C1C(=O)OCC [SZ-023390],< 50
23,C#Cc1cc(F)ccc1[C@@H]1N=C(c2nccs2)NC(CN2CCN3C(=O)N(CC(C)(C)CC(=O)O)C[C@@H]3C2)=C1C(=O)OCC [SZ-023392],< 50

# Same assay, conditions: Hepatitis B virus, HepG2.2.15, 72 h
row,SMILES,EC50 [nM]
1,C#Cc1cc(F)ccc1C1N=C(c2nccs2)NC(CN2[C@@H]3C[C@H](CC(=O)O)C[C@H]2C(F)(F)C3)=C1C(=O)OCC (mixture of isomers) [SZ-023091RAC],< 50
2,C#Cc1c(F)cccc1[C@@H]1N=C(c2nccs2)NC(CN2[C@@H]3C[C@H](CC(=O)O)C[C@H]2C(F)(F)C3)=C1C(=O)OCC [SZ-023085C],< 50
3,C#Cc1cc(F)ccc1[C@@H]1N=C(c2nccs2)NC(CN2[C@@H]3CC(CC(=O)O)C[C@H]2C(F)(F)C3)=C1C(=O)OCC (some centres unmarked) [SZ-023091C],< 50
